Values quoted from earlier work as cited in publication PMC7211198, “Phase 1b study of a small molecule antagonist of human chemokine (C-C motif) receptor 2 (PF-04136309) in combination with nab-paclitaxel/gemcitabine in first-line treatment of metastatic pancreatic ductal adenocarcinoma” (Investigational New Drugs, 2019).

System: CCR2
Conditions: human monocytes and human whole blood; background statement, no reference given; cited from earlier work

## O=C(NCC(=O)N1CC[C@H](N[C@H]2CC[C@@](O)(c3ccc(-c4ncccn4)cn3)CC2)C1)c1cccc(C(F)(F)F)c1 [PF-04136309]
  Effect on CCR2-mediated signal transduction, chemotaxis, and CCL2 binding: block
